Bridge positions count the residues as written; N and C are the ends. Square brackets hold non-standard residues; d marks the D form. Peptide text beside a SMILES is read from it. N(1-adamantyl)Gly = O=C(O)CNC12CC3CC(CC(C3)C1)C2; Cha = N[C@@H](CC1CCCCC1)C(=O)O; S5 = C=CCCC[C@](C)(N)C(=O)O; PEG3 = NCCOCCOCCOCCC(=O)O
Tests used:
[1] = Circular dichroism (CD), calculated helicity; type: physicochemical; settings: 50 μM peptide in 30% PBS (pH 7.4) and 70% acetonitrile, calculated from CD spectra
Protocol: Lyophilized compounds (YL2 and YL2-HyT1 through YL2-HyT6) were dissolved in 30% PBS (pH 7.4) and 70% acetonitrile solution to a final concentration of 50 μM. CD spectra were measured with a Jasco J-815 CD spectropolarimeter using a quartz cuvette (2 mm path length). These spectra were averages of five successive accumulations with a scan rate of 100 nm/min. Raw data were converted in terms of per-residue molar ellipticity (deg·cm^2·dmol^−1·residue^−1) as calculated per mole of amide groups present and normalized by the molar concentration of peptides. Smoothing and correction of background spectra were performed with Origin Pro 8.0 (OriginLab Corporation, Northampton, MA, USA). Then α-helical propensities of YL2 and YL2-HyT1 through YL2-HyT6 were calculated as previously reported.

Serum stability in FBS = type: in vitro ADME, bovine; settings: 40 μM in DPBS containing 25% FBS, 37 °C, 0–24 h, LC–MS, normalized to control without FBS
Protocol: YL2-HyT6 and ND1-YL2 solutions (200 μL, 40 μM in DPBS containing 25% FBS) were incubated at 37 °C for different time periods (0–24 h). For the precipitation of serum proteins, each sample was treated with 100 μL of 15% TFA and incubated at 4 °C overnight. Final samples were then centrifuged at 15,000 rpm for 10 min and filtrated for analysis using LC–MS with a C18 column. The ratio of the remaining compound (%) was calculated by integrating the chromatographic peak of a compound and normalized in comparison with a control sample (incubated without FBS).

[2] = tested on: CSF-1 mRNA in MDA-MB-231 cells; assay: RT-qPCR of CSF-1 mRNA; type: cell-based, human; settings: 18 h, RT-qPCR normalized to 18S
Protocol: Quantitative real-time PCR was performed for CSF-1, E-cadherin, and 18S (as a reference gene) mRNAs. MDA-MB-231 cells (1.2 × 10^5 cells/well) were seeded into a 12-well plate and incubated at 37 °C with 5% CO2 for 24 h. These cells were treated with indicated compounds (YL2, adamantane, ND1-YL2, or YL2-HyT6) for 18 h in Opti-MEM medium. After cells were washed with cold DPBS, mRNAs were isolated from these cells using an AccuPrep Universal RNA extraction kit (Bioneer, Daejeon, Korea). Then 1.5 µg of mRNAs were reverse-transcribed using AccuPower RocketScript Cycle RT PreMix (Bioneer) to generate complementary DNAs. RT-qPCR for CSF-1, E-cadherin, and 18S was performed with a StepOnePlus Real-Time PCR System (Applied Biosystems, Waltham, MA, USA) and SYBR Green mix (Applied Biosystems) according to the manufacturer’s instructions with gene-specific primers (Table 1).

MDA-MB-231 cells [3] = assay: Gap closure migration (wound healing) assay; type: cell-based, human; settings: 20 µM, 72 h
Protocol: MDA-MB-231 cells (2.8 × 10^4 cells/well) were seeded into Culture-Insert 2 wells (ibidi, 80209) placed in a 35 mm culture dish. After incubation at 37 °C with 5% CO2 for 24 h, Culture-Insert 2 wells were carefully removed from the culture dish with a sterilized tweezer. These cells were then treated with indicated compounds (YL2, adamantane, ND1-YL2, or YL2-HyT6) in Opti-MEM medium for 72 h. Cell images were obtained with a culture microscope (Olympus, Tokyo, Japan, CKX41). The cell-free area of the image was quantified with ImageJ software (NIH, Bethesda, MD, USA). The relative gap-closure area was calculated using the following equation: […] where A was the cell-free area. (2) Gap−Closure %=At=0 h−At=72 h/At=0 h×100

HEK293T cells = assay: Cell viability assay (Cyto X); type: cell-based, human; settings: 48 h, Opti-MEM
Protocol: (§1) MDA-MB-231 (1 × 10^4 cells/well) and HEK293T (1 × 10^4 cells/well) cells were seeded into a 96-well plate (Corning, 3595) and incubated at 37 °C with 5% CO2 for 24 h. These cells were then washed twice with DPBS and treated with 1% DMSO or various concentrations of YL2-HyT6 for 48 h in Opti-MEM medium. The remaining cells were then used to measure cell viability using a Cyto X cell viability assay kit (LPS solution, Daejeon, Korea, CYT3000) following the manufacturer’s instruction.

MDA-MB-231 cells [4] = assay: Cell viability assay (Cyto X); type: cell-based, human; settings: 48 h, Opti-MEM
Protocol: as §1

CC(C)C[C@H](NC(=O)CCOCCOCCOCCNC(=O)CNC12CC3CC(CC(C3)C1)C2)C(=O)N[C@@H](CC(C)C)C(=O)N1CCC[C@H]1C(=O)N1CCC[C@H]1C(=O)N[C@H](C(=O)N[C@@H](CCC(=O)O)C(=O)N[C@@H](CCC(N)=O)C(=O)N[C@@H](CC(=O)O)C(=O)N[C@@H](CC(C)C)C(=O)N[C@@]1(C)CCC/C=C\CCC[C@@](C)(C(=O)N[C@@H](Cc2ccc(O)cc2)C(N)=O)NC(=O)[C@H](CC2CCCCC2)NC(=O)[C@H](CC(C)C)NC(=O)[C@H](CCCCN)NC1=O)[C@@H](C)O [YL2-HyT6] (H-[N(1-adamantyl)Gly][PEG3]LLPPTEQDL[S5]KL[Cha][S5]Y-NH2; staple (Z) 12-16; C-terminus assumed)
Helicity (%) [1]: 32.6% | Serum stability (remaining compound) (Serum stability in FBS): improved stability relative to the peptide-based PROTAC (ND1-YL2) | CSF-1 mRNA expression level [2]: dose-dependent decrease in CSF-1 | Wound gap closure (cell migration) (MDA-MB-231 cells [3]): significantly inhibited gap closing | Cell viability (HEK293T cells): little effect on cell viability | Cell viability (MDA-MB-231 cells [4]): little effect on cell viability
